Data as given in PMC7018653 (mBio, 2020).
≈ marks a conversion by molar mass, not a printed value. Like-named read-outs stand apart in the source and are kept apart here. Residues, ends and D or L forms follow the SMILES beside them. *: point of attachment. βNA = c1ccc2cc(N*)ccc2c1

What was measured:
[1] = ref supplement refs 1-13 as given per antibiotic; cited from earlier work
in vitro [2] = settings: Klebsiella pneumoniae, not told
in vitro [3] = settings: Klebsiella pneumoniae, not told; remark: listed apart in the source
[4] = tested on: K. pneumoniae isolate (KP3800); experiment: agar MIC according to CLSI guidelines; format: cell-based, Klebsiella pneumoniae
[5] = tested on: E. cloacae isolate (EC3800); experiment: agar MIC according to CLSI guidelines; format: cell-based, Enterobacter cloacae
[6] = critically ill patients; ref supplement refs 1-13 as given per antibiotic; cited from earlier work
E. cloacae complex = settings: cited from earlier work
[7] = tested on: polymyxin-susceptible E. cloacae isolate EC3800; settings: for OM permeability of imipenem, fold faster than meropenem: E. cloacae EC3800
[8] = tested on: polymyxin-resistant K. pneumoniae isolate KP3800; settings: for OM permeability coefficient, fold smaller in KP3800 compared to EC3800: KP3800 vs EC3800
[9] = basic group carrying the positive charge; no reference given; cited from earlier work
in vitro [10] = settings: Enterobacter cloacae, not told, pH 7, Avg OM permeability coefficient (nm/s) ± SD
P. aeruginosa = settings: not told; cited from earlier work
[11] = pH 7, Avg OM permeability coefficient (nm/s) ± SD, Cassette K. pneumoniae, efflux: with 25 mg/liter PAβN, two biological replicates
[12] = pH 7, Avg OM permeability coefficient (nm/s) ± SD, Cassette K. pneumoniae, three biological replicates
[13] = pH 7, Avg OM permeability coefficient (nm/s) ± SD, Discrete K. pneumoniae, three biological replicates
[14] = Cassette E. cloacae, efflux: with 25 mg/liter PAβN, two biological replicates
[15] = Cassette E. cloacae, three biological replicates
[16] = Discrete E. cloacae, three biological replicates

| Molecule | Papp (in vitro [2]; [11]) [×10⁻⁶ cm/s] | Papp (in vitro [2]; [12]) [×10⁻⁶ cm/s] | Papp (in vitro [2]; [13]) [×10⁻⁶ cm/s] | MIC ([4]; Klebsiella pneumoniae) [µg/mL] | MIC ([5]; Enterobacter cloacae) [µg/mL] | Mean Clearance [6] [L/h] | other results |
| --- | --- | --- | --- | --- | --- | --- | --- |
| C[C@H]1[C@H](NC(=O)/C(=N\OC(C)(C)C(=O)O)c2csc(N)n2)C(=O)N1S(=O)(=O)O [Aztreonam, aztreonam] | < 0.3 | < 0.3 | 0.864 ± 0.846 |  |  |  | Fraction bound in plasma (%) [1]: 51.5%; Papp (in vitro [3]): 0.74 ×10⁻⁶ cm/s |
| CO/N=C(\C(=O)N[C@@H]1C(=O)N2C(C(=O)[O-])=C(C[N+]3(C)CCCC3)CS[C@H]12)c1csc(N)n1 [Cefepime, cefepime] | < 0.3 | < 0.3 | 1.36 ± 0.926 | 128 (≈ 266 µM) | 16 (≈ 33.3 µM) |  |  |
| CC(C)(O/N=C(\C(=O)N[C@@H]1C(=O)N2C(C(=O)[O-])=C(C[n+]3ccccc3)CS[C@H]12)c1csc(N)n1)C(=O)O [Ceftazidime, ceftazidime] | < 0.3 | < 0.3 | < 0.3 | 64 (≈ 117 µM) | 16 (≈ 29.3 µM) | 9.22 | Papp (in vitro [2]; pH 7, Outer membrane permeability coefficients (nm/s), KP3800, discrete assay, average ± SD, three replicates (Table S2)): < 0.3 ×10⁻⁶ cm/s; Papp (in vitro [2]; pH 7, permeability coefficient, KP3800, degradation too slow to be reliably determined in intact bacteria, 'likely'): < 0.3 ×10⁻⁶ cm/s; permeability coefficients (E. cloacae complex): 0.1 ×10⁻⁶ cm/s |
| C[C@@H](O)[C@H]1C(=O)N2C(C(=O)O)=C(SCCN=CN)C[C@H]12 [Imipenem, imipenem] | 72.3 ± 12.4 | 90.7 ± 6.57 | 204 | 128 (≈ 428 µM) | 4 (≈ 13.4 µM) | 12.4 | OM permeability of imipenem, fold faster than meropenem [7]: at least 7 fold; OM permeability of imipenem, fold faster than meropenem ([7]; listed as imipenem): ~7 fold; OM permeability of imipenem, fold faster than aztreonam ([7]; EC3800): ~2,000 fold; OM permeability of imipenem, fold faster than cefepime ([7]; EC3800): 258 fold; OM permeability coefficient, fold smaller in KP3800 compared to EC3800 [8]: approximately 5 fold; Fraction bound in plasma (%) [1]: 9.1%; pKa2 [9]: 10.6; Papp (in vitro [10]; [14]): 393 ×10⁻⁶ cm/s; Papp (in vitro [10]; [15]): 577 ×10⁻⁶ cm/s; Papp (in vitro [10]; [16]): 666 ×10⁻⁶ cm/s; OM permeability of imipenem over meropenem, fold faster (P. aeruginosa): 2.74 fold |
| C[C@@H](O)[C@H]1C(=O)N2C(C(=O)O)=C(S[C@@H]3CN[C@H](C(=O)N(C)C)C3)[C@H](C)[C@H]12 [Meropenem, meropenem] | 5.75 ± 2.17 | 9.07 ± 0.689 | 8.33 ± 0.917 | > 256 | 4 (≈ 10.4 µM) | 10.4 | OM permeability coefficient, fold smaller in KP3800 compared to EC3800 [8]: ~10 fold; pKa2 [9]: 8.3; Papp (in vitro [10]; [14]): 40.2 ± 6.98 ×10⁻⁶ cm/s; Papp (in vitro [10]; [15]): 84.3 ± 29.2 ×10⁻⁶ cm/s; Papp (in vitro [10]; [16]): 72.9 ± 15.5 ×10⁻⁶ cm/s |
| N=C(N)NCCC[C@H](NC(=O)[C@@H](N)Cc1ccccc1)C(=O)Nc1ccc2ccccc2c1 [PAβN, phenylalanine-arginine β-naphthylamide] (H-Phe-Arg-βNA) |  |  |  |  |  |  | effect of efflux pump inhibitor on OM permeability estimates of the β-lactams ([7]; EC3800, PAβN 25 mg/liter, cassette assay): did not significantly affect; effect of efflux pump inhibitor on OM permeability estimates of the β-lactams ([8]; KP3800, PAβN 25 mg/liter, cassette assay): did not significantly affect |
| polymyxin |  |  |  |  |  |  | MIC ([4]; KP3800): 64 µg/mL; MIC ([5]; EC3800): 0.5 µg/mL |
